Measurements: patent US7517884B2 (Kalypsys Inc., priority 1998, dated 2009)
pEC50: −log10 of the molar value.

What was measured:
Assay type in all cases: cell-based, murine and human
Conditions in all cases: GAL4-PPAR LBD chimera
[1] = target: T1, PPAR-gamma (UniProt P37231); assay: PPAR-gamma transactivation assay (GAL4 chimera, luciferase reporter) in CV-1 cells
T1 sequence (P37231 1-505): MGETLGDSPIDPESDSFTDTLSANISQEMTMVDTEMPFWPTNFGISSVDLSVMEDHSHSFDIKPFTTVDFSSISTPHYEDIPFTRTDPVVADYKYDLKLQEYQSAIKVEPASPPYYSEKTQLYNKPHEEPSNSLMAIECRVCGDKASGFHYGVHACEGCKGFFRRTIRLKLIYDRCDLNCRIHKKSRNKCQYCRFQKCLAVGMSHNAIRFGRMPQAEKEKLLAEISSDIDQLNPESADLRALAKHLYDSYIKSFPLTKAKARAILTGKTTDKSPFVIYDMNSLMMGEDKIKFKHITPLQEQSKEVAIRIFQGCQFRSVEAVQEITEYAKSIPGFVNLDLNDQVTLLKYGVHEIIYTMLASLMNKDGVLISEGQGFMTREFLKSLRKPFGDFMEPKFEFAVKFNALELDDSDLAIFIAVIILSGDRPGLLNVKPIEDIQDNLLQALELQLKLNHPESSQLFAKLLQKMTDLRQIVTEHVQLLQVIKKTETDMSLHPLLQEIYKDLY
Summary of the method: (§1)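 CV-1 cells transiently transfected with murine or human PPAR-alpha, -gamma or -delta ligand-binding domain fused to GAL4 DNA-binding domain plus a GAL4-site luciferase reporter. After replating in phenol-red-free DME with 5% delipidated calf serum, cells were exposed to compound 20-24 h; luciferase read-out gave EC50.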

[2] = target: T2, PPAR-delta (UniProt Q03181); assay: PPAR-delta transactivation assay (GAL4 chimera, luciferase reporter) in CV-1 cells
T2 sequence (Q03181 1-441): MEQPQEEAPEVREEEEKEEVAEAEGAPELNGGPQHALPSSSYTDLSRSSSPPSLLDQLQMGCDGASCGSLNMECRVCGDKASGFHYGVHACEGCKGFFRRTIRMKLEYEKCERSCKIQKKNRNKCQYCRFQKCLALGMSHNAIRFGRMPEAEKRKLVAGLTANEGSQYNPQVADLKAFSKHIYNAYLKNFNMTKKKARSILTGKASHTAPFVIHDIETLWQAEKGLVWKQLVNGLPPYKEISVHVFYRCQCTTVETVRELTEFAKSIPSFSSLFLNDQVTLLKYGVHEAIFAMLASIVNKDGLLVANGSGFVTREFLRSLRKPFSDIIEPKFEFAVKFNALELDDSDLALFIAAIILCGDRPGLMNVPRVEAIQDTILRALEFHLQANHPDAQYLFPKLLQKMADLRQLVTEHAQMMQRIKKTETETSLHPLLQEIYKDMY
Summary of the method: as §1

[3] = target: T3, PPAR-alpha (UniProt Q07869); assay: PPAR-alpha transactivation assay (GAL4 chimera, luciferase reporter) in CV-1 cells
T3 sequence (Q07869 1-468): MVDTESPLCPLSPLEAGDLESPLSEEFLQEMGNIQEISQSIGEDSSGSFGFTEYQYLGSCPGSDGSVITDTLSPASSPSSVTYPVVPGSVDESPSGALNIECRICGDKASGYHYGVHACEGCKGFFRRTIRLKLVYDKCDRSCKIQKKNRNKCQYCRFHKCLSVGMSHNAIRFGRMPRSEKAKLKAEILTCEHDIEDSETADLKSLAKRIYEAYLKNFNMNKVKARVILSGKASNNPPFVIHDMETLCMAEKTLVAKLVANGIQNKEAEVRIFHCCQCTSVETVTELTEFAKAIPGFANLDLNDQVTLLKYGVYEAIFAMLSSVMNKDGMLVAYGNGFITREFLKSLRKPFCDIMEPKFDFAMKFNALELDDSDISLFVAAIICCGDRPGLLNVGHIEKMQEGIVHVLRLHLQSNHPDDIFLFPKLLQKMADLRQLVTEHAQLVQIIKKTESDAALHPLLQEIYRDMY
Summary of the method: as §1

SMILES	pEC50 [1]	pEC50 [2]	pEC50 [3]
C[C@@H]1CN(c2ccc(Cl)c(OC(F)(F)F)c2)C[C@H](C)N1S(=O)(=O)c1cccc2c1CC(C(=O)O)C2 (stereo partly drawn) [Example 131, 4-|4-(4-Chloro-3-trifluoromethoxyphenyl)-cis-2,6-dimethylpiperazine-1-ylsulfonyl|-2,3-dihydro-1H-indene-2-carboxylic acid]	< 4.00	> 5.30	< 4.00
C[C@@H]1CN(c2ccc(C(F)(F)F)c(Cl)c2)C[C@H](C)N1S(=O)(=O)c1cccc2c1CC(C(=O)O)C2 (single isomer, unassigned) [Example 138, 4-(4-(3-chloro-4-(trifluoromethyl)phenyl)-cis-2,6-dimethylpiperazin-1-ylsulfonyl)-2,3-dihydro-1H-indene-2-carboxylic acid]	< 4.00	> 5.30	< 4.00
C[C@@H]1CN(c2cc(Cl)c(C(F)(F)F)cn2)C[C@H](C)N1S(=O)(=O)c1cccc2c1CC(C(=O)O)C2 (stereo partly drawn) [Example 107, 4-[4-(4-Chloro-5-trifluoromethyl-pyridin-2-yl)-cis-2,6-dimethylpiperazine-1-sulfonyl]-indan-2-carboxylic acid]	< 4.00	> 5.30	< 4.00
C[C@@H]1CN(c2cccc(OC(F)(F)F)c2)C[C@H](C)N1S(=O)(=O)c1cccc2c1CC(C(=O)O)C2 (single isomer, unassigned) [Example 129, 4-[cis-2,6-dimethyl-4-(3-trifluoromethoxyphenyl)piperazin-1-ylsulfonyl]-2,3-dihydro-1H-indene-2-carboxylic acid]	< 4.00	> 5.30	< 4.00
C[C@@H]1CN(c2ccc(C(F)(F)F)cn2)C[C@H](C)N1S(=O)(=O)c1ccc2c(c1)C(C(=O)O)CC2 (single isomer, unassigned) [Example 76, 6-[cis-2,6-dimethyl-4-(5-trifluoromethylpyridin-2-yl)-piperazine-1-sulfonyl]-indan-1-carboxylic acid]	< 4.00	> 5.30	< 4.00
Cc1cc(N2C[C@@H](C)N(S(=O)(=O)c3cccc4c3CC(C(=O)O)C4)[C@@H](C)C2)ccc1Cl (stereo partly drawn) [Example 135, 4-|4-(4-Chloro-3-methylphenyl)-cis-2,6-dimethylpiperazin-1-ylsulfonyl|-2,3-dihydro-1H-indene-2-carboxylic acid]	< 4.00	> 5.30	< 4.00
C[C@@H]1CN(c2ccc(OC(F)(F)F)cc2)C[C@H](C)N1S(=O)(=O)c1ccc2c(c1)C(C(=O)O)CC2 (stereo partly drawn) [Example 51, 6-[2,6-cis-dimethyl-4-(4-trifluoromethoxy-phenyl)-piperazine-1-sulfonyl]-indan-1-carboxylic acid]	4.00 to 5.30	> 5.30	> 5.30
C[C@@H]1CN(c2ccc(Cl)c(Cl)c2)C[C@H](C)N1S(=O)(=O)c1ccc2c(c1)C(C(=O)O)CC2 (stereo partly drawn) [Example 49, 6-[4-(3,4-dichloro-phenyl)-2,6-cis-dimethyl-piperazine-1-sulfonyl]-indan-1-carboxylic acid]	4.00 to 5.30	> 5.30	> 5.30
Cc1ccc(N2C[C@@H](C)N(S(=O)(=O)c3cccc4c3CC(C(=O)O)C4)[C@@H](C)C2)cc1C (stereo partly drawn) [Example 137, 4-|4-(3,4-Dimethylphenyl)-cis-2,6-dimethylpiperazin-1-ylsulfonyl|-2,3-dihydro-1H-indene-2-carboxylic acid]	< 4.00	> 5.30	< 4.00
C[C@@H]1CN(c2ccc(C(F)(F)F)cn2)C[C@H](C)N1S(=O)(=O)c1cccc2c1CC(C(=O)O)C2 (stereo partly drawn) [Example 77, 4-[cis-2,6-dimethyl-4-(5-trifluoromethyl-pyridin-2-yl)-piperazine-1-sulfonyl]-indan-2-carboxylic acid]	< 4.00	> 5.30	< 4.00

Next, values leading:

pEC50 [1]	pEC50 [2]	pEC50 [3]	SMILES
4.00 to 5.30	> 5.30	< 4.00	C[C@@H]1CN(c2cccc(OC(F)(F)F)c2)C[C@H](C)N1S(=O)(=O)c1cccc2c1CC(C(=O)O)C2 (stereo partly drawn) [Example 115, 4-[cis-2,6-dimethyl-4-(3-trifluoromethoxyphenyl)piperazin-1-ylsulfonyl]-2,3-dihydro-1H-indene-2-carboxylic acid]
4.00 to 5.30	> 5.30	4.00 to 5.30	O=C(O)C1Cc2cccc(S(=O)(=O)N3CCN(c4cccc(OC(F)(F)F)c4)CC3)c2C1 (stereo not drawn) [Example 113, 4-[4-(3-Trifluomethoxy-phenyl)-piperazine-1-sulfonyl]-indan-2-carboxylic acid]
> 5.30	> 5.30	> 5.30	O=C(O)C1CCc2ccc(S(=O)(=O)N3CCN(c4ccc(C(F)(F)F)cn4)CC3)cc21 (stereo not drawn) [Example 20, 6-[4-(5-trifluoromethyl-pyridin-2-yl)-piperazine-1-sulfonyl]-indan-1-carboxylic acid]
4.00 to 5.30	> 5.30	4.00 to 5.30	C[C@@H]1CN(c2ccc(SC(F)(F)F)cc2)C[C@H](C)N1S(=O)(=O)c1cccc2c1CC(C(=O)O)C2 (stereo partly drawn) [Example 101, 4-[cis-2,6-dimethyl-4-(4-trifluoromethylsulfanyl-phenyl)-piperazine-1-sulfonyl]-indan-2-carboxylic acid]
4.00 to 5.30	> 5.30	4.00 to 5.30	O=C(O)Cn1ccc2ccc(S(=O)(=O)N3CCN(c4ccc(C(F)(F)F)cn4)CC3)cc21 [Example 35, {6-[4-(5-trifluoromethyl-pyridin-2-yl)-piperazine-1-sulfonyl]-indol-1-yl}-acetic acid]
> 5.30	> 5.30	> 5.30	O=C(O)C1CCc2ccc(S(=O)(=O)N3CCN(c4ccc(C(F)(F)F)c(F)c4)CC3)cc21 (stereo not drawn) [Example 26, 6-[4-(3-fluoro-4-trifluoromethyl-phenyl)-piperazine-1-sulfonyl]-indan-1-carboxylic acid]
4.00 to 5.30	> 5.30	4.00 to 5.30	C[C@@H]1CN(c2ccc(C(C)(C)C)cc2)C[C@H](C)N1S(=O)(=O)c1cccc2c1CC(C(=O)O)C2 (stereo partly drawn) [Example 106, 4-[4-(4-tert-butyl-phenyl)-cis-2,6-dimethyl-piperazine-1-sulfonyl]-indan-2-carboxylic acid]
> 5.30	> 5.30	> 5.30	C[C@H]1CN(S(=O)(=O)c2ccc3c(c2)C(C(=O)O)CC3)CCN1c1ccc(C(F)(F)F)c(F)c1 (stereo partly drawn) [Example 54, 6-[4-(3-Fluoro-4-trifluoromethyl-phenyl)-3-(S)-Methyl-piperazine-1-sulfonyl]-indan-1-carboxylic acid]
4.00 to 5.30	> 5.30	< 4.00	C[C@@H]1CN(Cc2ccc(Cl)c(Cl)c2)C[C@H](C)N1S(=O)(=O)c1cccc2c1CC(C(=O)O)C2 (stereo partly drawn) [Example 111]
4.00 to 5.30	> 5.30	< 4.00	O=C(O)Cn1ccc2cc(Br)c(S(=O)(=O)N3CCN(c4ccc(C(F)(F)F)cc4)CC3)cc21 [Example 32, {5-Bromo-6-[4-(4-trifluoromethyl-phenyl)-piperazine-1-sulfonyl]-indol-1-yl}-acetic acid]
4.00 to 5.30	> 5.30	> 5.30	C[C@@H]1CN(c2ccc(C(F)(F)F)c(F)c2)C[C@H](C)N1S(=O)(=O)c1ccc2c(c1)C(C(=O)O)CC2 (stereo partly drawn) [Example 70, 6-[cis-2,6-dimethyl-4-(3-fluoro-4-trifluoromethyl-phenyl)-piperazine-1-sulfonyl]-indan-1-carboxylic acid]
> 5.30	> 5.30	> 5.30	C[C@H]1CN(S(=O)(=O)c2ccc3c(c2)C(C(=O)O)CC3)C[C@H](C)N1c1ccc(C(F)(F)F)cn1 (stereo partly drawn) [Example 69, 6-[trans-3,5-(S,S)-dimethyl-4-(5-trifluoromethyl-pyrdin-2-yl)-piperazine-1-sulfonyl]-indan-1-carboxylic acid]
